Holding throughout (experiment): radiometric kinase assay (Eurofins KinaseProfiler)
Assay type in all cases: biochemical
What all share (conditions): 2 µM LXY18; Mg/ATP; 120 min; room temperature; no pre-incubation

Experiment [1] has as its target T1, ABL (Homo sapiens, UniProt P00519, H396P).
T1 construct: gene ABL1; Eurofins KinaseProfiler panel kinase

The target in experiment [2] is T2, ABL (Homo sapiens, UniProt P00519).
T2 construct: gene ABL1; Eurofins KinaseProfiler panel kinase

The target of the next experiment is T3, MKK3 (Homo sapiens, UniProt P46734).
T3 construct: gene MAP2K3; Eurofins KinaseProfiler panel kinase
T3 sequence (P46734 1-347): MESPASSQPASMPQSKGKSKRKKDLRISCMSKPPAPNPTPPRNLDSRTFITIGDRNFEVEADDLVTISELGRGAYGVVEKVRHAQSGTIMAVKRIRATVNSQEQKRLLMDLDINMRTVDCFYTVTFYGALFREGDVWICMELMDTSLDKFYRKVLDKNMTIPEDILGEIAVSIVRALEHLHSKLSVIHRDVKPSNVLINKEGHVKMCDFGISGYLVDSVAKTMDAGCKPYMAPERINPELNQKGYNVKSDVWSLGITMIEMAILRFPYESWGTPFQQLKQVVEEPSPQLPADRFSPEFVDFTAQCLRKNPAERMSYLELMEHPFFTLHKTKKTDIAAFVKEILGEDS

For the molecule `COc1cc(NC(C)=O)cc(Oc2ccnc3ccc(Br)cc23)c1` [LXY18, N-(3-((6-bromoquinolin-4-yl)oxy)-5-methoxyphenyl)acetamide], the “% inhibition at 2 μM” value at ABL [1] is “MKK3, ABL, and an activating mutant ABL (H396P)”; on ABL [2] it was “The only positive hits in the kinome assay were MKK3, ABL, and an activating mutant”; on MKK3, “The only positive hits in the kinome assay were MKK3, ABL, and an activating mutant”.

Values taken from paper PMC10615259, “The Aurora kinase B relocation blocker LXY18 triggers mitotic catastrophe selectively in malignant cells” (PLOS ONE, 2023).
